Test results taken from publication PMC8711299, “Rational Designed Hybrid Peptides Show up to a 6-Fold Increase in Antimicrobial Activity and Demonstrate Different Ultrastructural Changes as the Parental Peptides Measured by BioSAXS” (Frontiers in Pharmacology, 2021).
≈ marks a conversion by molar mass, not a printed value. Positions of bridges follow the written chain, without caps; N, C: chain ends. Residues, ends and D or L forms follow the SMILES beside them. No end group written: not given here.

Assays:
E. coli [1] = experiment: MIC of standard antibiotics against E. coli (BioSAXS comparison); type: cell-based, Escherichia coli; details: used at 3x MIC, 240 min incubation, for BioSAXS
Text: To discuss the obtained results in the context of conventional antibiotics, compared the peptides to three antibiotics, tigecycline (bacteriostatic activity by binding to the […] ribosomal subunit of the bacterial ribosome), chloramphenicol (bacteriostatic activity by binding to the […] ribosomal subunit of the bacterial ribosome), and rifampicin (bactericidal activity by inhibiting the DNA-dependent RNA polymerase activity), see Figure 5. […] As the antibiotics have slower kill kinetics than the AMPs, 240 min incubation time was used. […] The PCA values of Bac5-v291 and hyP7B5GK deviate strongly from the untreated controls and the standard antibiotics. The PCA values of peptides hyP7B5Cys and optP7 are nearest to chloramphenicol.

[2] = system: methicillin-resistant Staphylococcus aureus HO 5096 0412 (MRSA); type: cell-based; details: methicillin-resistant HO 5096 0412
Text: (§1) In this project the following bacterial strains were used: 1) methicillin-resistant Staphylococcus aureus (S. aureus) HO 5096 0412 (a neonatal infection isolate, isolated in Ipswich, England in 2005, obtained from Jody Lindsay (St. George’s, University of London), 2) Escherichia coli (E. coli, UB1005, F-, LAM-, gyrA37, relA1, spoT1, metB1, LAMR) used solely for transmission electron microscopy, E. coli (ATCC 25922), 3) Pseudomonas aeruginosa PAO1 obtained from Dr Robert E.W. Hancock (Department of Microbiology and Immunology, University of British Columbia).
(§2) Mueller-Hinton broth (MHb) (Merck, Life Science UK Limited, Dorset, UK)) was prepared concurring to the manufacturer’s directions was used to grow the bacterial strains. Liquid bacterial cultures were incubated at 37°C for 18–20 h on a shaker, bacterial culture on solid media was incubated for 18–24 h at 37°C.
(§3) A broth microdilution assay was applied to determine the minimum inhibitory concentrations (MIC) in MHb for both, using 5 × 10^5 CFU/ml (MICs in Table 1) and 10^8 CFU/ml (BioSAXS and electron microscopy, values in Table 2). A detailed description of the method can be found in the open-source publication by von Gundlach et al. (von Gundlach et al., 2019a).

[3] = system: Pseudomonas aeruginosa PAO1; type: cell-based
Text: as §1, §2, §3

human red blood cells = type: cell-based; details: for HC50 (peptide concentration needed to induce haemolysis in human red blood cells at 50%): red cells of human, 1 h
Procedure: The protocol to determine the haemolytic activity of the peptides and HC50 values were described previously ([Grimsey et al., 2020]). Briefly, human blood was washed and diluted with PBS (4% v/v) and incubated with a pre-made dilution series of the peptides and incubated for 1 h at 37 C. The 100% haemolysis value was achieved by incubation with Triton X (1% final concentration). Haemoglobin was measured at 414 and 546 nm using an ELISA plate reader. HC50 values were determined using the Prism software (GraphPad).

E. coli [4] = type: cell-based, Escherichia coli
Text: as §1, §2, §3

E. coli [5] = type: cell-based, Escherichia coli; remark: listed apart in the source
Text: as §3
Quite early on in our drug development process, we have selected optP7 over optP1 for a slightly better MIC against P. aeruginosa. Further investigations were performed with peptide optP7 only. Firstly, we investigated E. coli cells treated with optP7 by transmission electron microscopy (TEM) to get a better understanding of the mode of action/ultrastructural changes of the peptides on E. coli, see Figure 1. In order to achieve a sufficient number of bacteria to form a pellet, a bacterial concentration of 1 × 10^8 CFU/ml was used. […] The outer membrane of E. coli of the untreated sample appears thick and relatively smooth (Figure 1, arrow 1), whereas for the peptide treated one, it was damaged (Figure 1, arrow 2) and blebbing was visible (Figure 1, arrow 3), where lipopolysaccharides (LPS) form small vesicles and are shed from the cell. The inner membrane for both, the untreated control (Figure 1A, arrow 4), and the peptide treated E. coli (Figure 1, arrow 5) seemed to remain intact and no spillage of the cytosol content was observed. The DNA in untreated bacterial cells comprised dispersed fibrils in the cytoplasm, see Figure 1, dotted lines. The bacterial DNA is concentrated in a ‘DNA–plasm’ called the nucleoid ([Ohniwa et al., 2007]). The peptide optP7 creates an enlarged and spherical nucleoid, dotted line in Figure 1., typically seen in DNA-dependent RNA polymerase inhibitors and protein synthesis inhibitors. Compared to the untreated bacteria (Figure 1, arrow 6), the peptide treated ones show more pronounced granular substructures (Figure 1, arrow 7) in the cytosol could indicate aggregation of cytosolic proteins. These substructures were observed before using small AMPs ([Von Gundlach et al., 2016a], [2019]).
Small-angle X-ray scattering for biological samples (BioSAXS) on the P12 beamline can be used to measure ultrastructural changes within the bacteria in the range between 2 and 157 nm, from which we used the range from 20 to 120 nm for analysis of the bacteria after treatment with the antimicrobial peptides. […] The MICs for the selected peptides against E. coli at 1 × 10^8 CFU/ml were determined (Table 2). […] To quantify the subtle changes between the different treatments we used a PCA analysis using SciXMiner and the “Peptide Extension” tool ([Mikut, 2010]; [Mikut et al., 2017]) (Figure 4). […]

Compound | MIC against E. coli (standard antibiotics) (E. coli [1]) | MIC MRSA [2] | MIC PA (P. aeruginosa) [3] | Therapeutic window HC50/MIC(MRSA) (human red blood cells) | HC50 (peptide concentration needed to induce haemolysis in human red blood cells at 50%) (human red blood cells) | MIC E. coli (E. coli [4]) | MIC E. coli at 1 × 10^8 CFU/ml (E. coli [5])
O=C(N[C@H](CO)[C@H](O)c1ccc([N+](=O)[O-])cc1)C(Cl)Cl [chloramphenicol] | 8 µg/mL | – | – | – | – | – | –
CC[C@H](C)[C@H](NC(=O)[C@H](Cc1c[nH]c2ccccc12)NC(=O)[C@H](CCCNC(=N)N)NC(=O)[C@@H](NC(=O)[C@H](CCCNC(=N)N)NC(=O)[C@H](CCCNC(=N)N)NC(=O)[C@H](CCCCN)NC(=O)CNC(=O)[C@H](CCCCN)NC(=O)[C@@H]1CSSC[C@H](NC(=O)[C@H](CCCCN)NC(=O)CNC(=O)[C@H](CCCCN)NC(=O)[C@H](CCCNC(=N)N)NC(=O)[C@H](Cc2c[nH]c3ccccc23)NC(=O)[C@H](Cc2ccccc2)NC(=O)[C@@H]2CCCN2C(=O)[C@@H]2CCCN2C(=O)[C@H](CCCNC(=N)N)NC(=O)[C@@H](NC(=O)[C@@H]2CCCN2C(=O)[C@H](CCCNC(=N)N)NC(=O)[C@H](CCCNC(=N)N)NC(=O)[C@H](CCCNC(=N)N)NC(=O)[C@@H](NC(=O)[C@@H]2CCCN2C(=O)[C@H](CCCNC(=N)N)NC(=O)[C@H](CCCNC(=N)N)NC(=O)[C@H](Cc2c[nH]c3ccccc23)NC(=O)[C@@H](N)CCCNC(=N)N)[C@@H](C)CC)[C@@H](C)CC)C(=O)N[C@@H](CO)C(=O)N[C@@H](CO)C(=O)N1)C(C)C)C(=O)N[C@H](C(=O)N[C@@H](Cc1c[nH]c2ccccc12)C(N)=O)[C@@H](C)CC [hyP7B5Cys] (H-RWRRPIRRRPIRPPFWRKGKCSSCKGKRRVRWIIW-NH2; disulfide 21-24) | – | 1 µM (≈ 4.57 µg/mL) | 2 µM (≈ 9.15 µg/mL) | >102 | 102 µM | 0.6 µM (≈ 2.74 µg/mL) | 4 µM
CO[C@H]1/C=C/O[C@@]2(C)Oc3c(C)c(O)c4c(O)c(c(/C=N/N5CCN(C)CC5)c(O)c4c3C2=O)NC(=O)/C(C)=C\C=C\[C@H](C)[C@H](O)[C@@H](C)[C@@H](O)[C@@H](C)[C@H](OC(C)=O)[C@@H]1C [rifampicin] | 15 µg/mL | – | – | – | – | – | –
CN(C)c1cc(NC(=O)CNC(C)(C)C)c(O)c2c1C[C@H]1C[C@H]3[C@H](N(C)C)C(O)=C(C(N)=O)C(=O)[C@@]3(O)C(O)=C1C2=O [tigecycline] | 4 µg/mL | – | – | – | – | – | –
KIILRIRWR-NH2 [optP1] | – | 1.5 µM | 6 µM | 137 | 205 µM | 1 µM | –
KIILRIRWRGGGVRKPPYLPRPRPRPL-NH2 [hyP1CoG1] | – | 2.5 µM | 1 µM | >62.8 | >157 µM | 1 µM | –
KRRVRWIIW-NH2 [optP7] | – | 6 µM | 3 µM | >32.5 | >195 µM | 1.5 µM | 14 µM
KRRVRWIIWGGGVRKPPYLPRPRPRPL-NH2 [hyP7CoG2] | – | 5 µM | 2.5 µM | >30.8 | >154 µM | 2.5 µM | –
RWRRPIRRRPIRPPFWR-NH2 [Bac5-v291] | – | 27 µM | 27 µM | >10.3 | >278 µM | 1.7 µM | 1.1 µM
RWRRPIRRRPIRPPFWRGGGKRRVRWIIW-NH2 [hyP7B5G] | – | 2 µM | 2 µM | 51 | 102 µM | 2 µM | –
RWRRPIRRRPIRPPFWRKGKGKGKRRVRWIIW-NH2 [hyP7B5GK] | – | 1 µM | 2 µM | >120 | >120 µM | 1 µM | 4 µM
RWRRPIRRRPIRPPFWRKKKKRRVRWIIW-NH2 [hyP7B5K] | – | 2 µM | 2 µM | 41 | 82 µM | 2 µM | –
VRKPPYLPRPRPRPL-NH2 [consP1] | – | >139 µM | >139 µM | – | >139 µM | 35 µM | –
VRKPPYLPRPRPRPLGGGKIILRIRWR-NH2 [hyP1CoG2] | – | 2.5 µM | 2.5 µM | >62.8 | >157 µM | 1 µM | –
VRKPPYLPRPRPRPLGGGKRRVRWIIW-NH2 [hyP7CoG1] | – | 5 µM | 5 µM | >30.8 | >154 µM | 1 µM | –
